Measurements reported in PubChem BioAssay AID1224921 (Broad Institute, 2016).
Active and inactive are the calls of the source. No rule for the calls is given here.

System: Clostridioides difficile clinical isolate growth, OD600, 24 h
Assay: inhibitors of Clostridioides difficile proliferation – 4-point retest, confirmation (AID 1224921)

SMILES | AC50
CCNC(=O)C[C@H]1CC[C@H]2[C@@H](COC[C@@H](O)CN2C(=O)Nc2ccc(Cl)c(Cl)c2)O1 | 3.9 µM
O=C(NCC[C@@H]1CC[C@@H](NC(=O)C2CC2)[C@@H](CO)O1)Nc1ccc(C(F)(F)F)cc1 | 10.7 µM
O=C(NCC[C@@H]1CC[C@H](NC(=O)C2CCCCC2)[C@H](CO)O1)Nc1ccc(Cl)cc1 | 30 µM
CO[C@@H]1CN(C)C(=O)c2ccc(NC(=O)C3CCOCC3)cc2OC[C@@H](C)N(C(=O)Nc2ccc(C(F)(F)F)cc2)C[C@H]1C | 16.1 µM
CO[C@@H]1CN(C)C(=O)c2cc(NC(=O)c3cc(C)on3)ccc2OC[C@H](C)N(C(C)=O)C[C@@H]1C | > 60 µM (inactive)
CO[C@H]1CN(C)C(=O)c2ccc(NC(=O)Nc3ccc(Cl)c(Cl)c3)cc2OC[C@H](C)NC[C@H]1C | 9.83 µM
C[C@H]1CN([C@@H](C)CO)S(=O)(=O)c2ccc(C#CC3CCCCC3)cc2O[C@H]1CN(C)C | 16.4 µM
CO[C@@H](CN(C)Cc1cc(F)ccc1F)[C@H](C)CN(C(=O)Nc1ccc(C(F)(F)F)cc1)[C@H](C)CO | 5.25 µM
CCC(=O)N[C@@H]1CC[C@H](CCNC(=O)Nc2ccc(C(F)(F)F)cc2)O[C@@H]1CO | 4.29 µM
O=C(C[C@H]1CC[C@@H]2[C@H](COC[C@H](O)CN2C(=O)Nc2ccc(Cl)c(Cl)c2)O1)NC1CCC1 | 4.46 µM
O=C(C[C@@H]1CC[C@H]2[C@@H](COC[C@@H](O)CN2C(=O)Nc2ccc(Cl)c(Cl)c2)O1)NCc1ccc(Cl)c(Cl)c1 | < 0.5 µM
O=C(C[C@@H]1CC[C@H]2[C@@H](COC[C@@H](O)CN2S(=O)(=O)c2ccc(Cl)cc2)O1)NCC1CCCCC1 | 15.8 µM
C[C@@H]1CCCCO[C@@H](CN(C)CC2CCCCC2)[C@H](C)CN([C@H](C)CO)C(=O)c2cc(NC(=O)Nc3ccc(C(F)(F)F)cc3)ccc2O1 | 16.2 µM
O=C(C[C@H]1CC[C@H]2[C@@H](COC[C@@H](O)CN2C(=O)Nc2ccc(Cl)c(Cl)c2)O1)NCc1ccc(Cl)cc1 | 1.03 µM
O=C(NCC[C@H]1CC[C@H](NC(=O)c2cccnc2)[C@H](CO)O1)Nc1ccc(C(F)(F)F)cc1 | 1.6 µM
O=C(C[C@H]1CC[C@H]2[C@@H](COC[C@H](O)CN2C(=O)Nc2ccc(C(F)(F)F)cc2)O1)NC1Cc2ccccc2C1 | 1.54 µM
C[C@H](CO)N1C[C@H](C)[C@H](CN(C)CC2CCCCC2)OCCCC[C@H](C)Oc2ccc(NC(=O)Nc3ccc(C(F)(F)F)cc3)cc2C1=O | 10.9 µM
O=C(NCC[C@@H]1CC[C@@H](NC(=O)c2cccnc2)[C@@H](CO)O1)Nc1ccc(C(F)(F)F)cc1 | 13.8 µM
CN(C)CC(=O)N[C@@H]1CC[C@@H](CCNC(=O)Nc2ccc(C(F)(F)F)cc2)O[C@@H]1CO | 4.58 µM
CO[C@H](CN(C)C(=O)C1CCOCC1)[C@H](C)CN(C(=O)Nc1ccc(C(F)(F)F)cc1)[C@@H](C)CO | 4.13 µM
